In patent US7008613B2, “Quaternary ammonium compounds” (Les Laboratoires Servier, priority 1999, dated 2006):

Experiment: Tissue distribution study by measurement of radioactivity across whole-body sections
Type: in vivo, male Sprague-Dawley rats
Conditions: for radioactivity bound by the kidney (elimination organ): first minutes following the injection; for tissue distribution of radioactivity: target organs/tissues: labelled molecule, rat whole-body sections
Procedure: Pharmacokinetic Study: Tissue Distribution Study
This study was carried out with molecules labelled with ^14C. The tissue distribution study was carried out by direct measurement of the radioactivity across whole-body sections in accordance with the following method: male Sprague-Dawley rats were administered intravenously or orally with a dose of the labelled molecule. Then, at times ranging from 5 minutes to 24 hours after the administration, the animals were sacrificed by ether inhalation and frozen in liquid nitrogen.
Sections were then prepared using a cryomicrotome and, after desiccation, the distribution of radioactivity was measured using an image analyser.

| Structure (SMILES) | affinity for cartilage (administration of the labelled molecule by the oral route) | time of maximum binding to cartilage (after injection) [min] | affinity of cartilage versus surrounding tissues (after injection of labelled molecule) | radioactivity bound by the kidney (elimination organ) | tissue distribution of radioactivity: target organs/tissues (after injection) |
| --- | --- | --- | --- | --- | --- |
| CN1C(C(=O)NCCC[N+](C)(C)C)=C(O)c2ccccc2S1(=O)=O.[I-] [Example 6, {3-[(4-Hydroxy-2-methyl-1,1-dioxide-2H-1,2-benzothiazin-3-yl)-carboxamido]propyl}trimethylammonium iodide] | very high affinity for cartilage | 5 | cartilage exhibits a far greater affinity than the surrounding tissues |  |  |
| C[N+](C)(C)CC(=O)N[C@H]1C(O)O[C@H](CO)[C@@H](O)[C@@H]1O.[Cl-] (stereo partly drawn) [Example 4, 2-(N,N,N-trimethylammonioacetamido)-2-deoxy-α,β-D-glucopyranose chloride] |  |  |  | binds significant amounts of radioactivity | cartilage, and to a lesser degree skin, are the only targets |
| O=C(C[n+]1ccccc1)N[C@H]1C(O)O[C@H](CO)[C@@H](O)[C@@H]1O.[Cl-] (stereo partly drawn) [Example 5, 2-(Pyridinioacetamido)-2-deoxy-α,β-D-glucopyranose chloride] |  |  |  | binds significant amounts of radioactivity | cartilage, and to a lesser degree skin, are the only targets |
| N[C@H]1C(O)O[C@H](CO)[C@@H](O)[C@@H]1O (some centres unmarked) [glucosamine, reference compound] |  |  |  |  | the liver is the main target organ |
